According to patent US20260285875A1, “INHIBITORS OF PARG” (858 Therapeutics, Inc., priority 2023, published 2026):

Target: T1, cellular PARG (Homo sapiens, UniProt Q86W56)
T1 construct: endogenous in cells; host or cells: HeLa
Assay: Nuclear PAR accumulation assay (immunofluorescence high-content imaging, MMS-treated HeLa cells)
Assay type: cell-based
Details: 1 hour compound then MMS 50 μg/mL for an additional hour
In short: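 HeLa cells pretreated with compound for 1 h at 37° C, then given 50 μg/mL MMS for another hour. After methanol fixation, PAR was immunostained with DAPI nuclear counterstain; per-nucleus intensity and percent PAR-positive cells were imaged at 20× (≥1,000 cells/well). IC50 from four-parameter logistic fit.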

T1 sequence (Q86W56 whole entry): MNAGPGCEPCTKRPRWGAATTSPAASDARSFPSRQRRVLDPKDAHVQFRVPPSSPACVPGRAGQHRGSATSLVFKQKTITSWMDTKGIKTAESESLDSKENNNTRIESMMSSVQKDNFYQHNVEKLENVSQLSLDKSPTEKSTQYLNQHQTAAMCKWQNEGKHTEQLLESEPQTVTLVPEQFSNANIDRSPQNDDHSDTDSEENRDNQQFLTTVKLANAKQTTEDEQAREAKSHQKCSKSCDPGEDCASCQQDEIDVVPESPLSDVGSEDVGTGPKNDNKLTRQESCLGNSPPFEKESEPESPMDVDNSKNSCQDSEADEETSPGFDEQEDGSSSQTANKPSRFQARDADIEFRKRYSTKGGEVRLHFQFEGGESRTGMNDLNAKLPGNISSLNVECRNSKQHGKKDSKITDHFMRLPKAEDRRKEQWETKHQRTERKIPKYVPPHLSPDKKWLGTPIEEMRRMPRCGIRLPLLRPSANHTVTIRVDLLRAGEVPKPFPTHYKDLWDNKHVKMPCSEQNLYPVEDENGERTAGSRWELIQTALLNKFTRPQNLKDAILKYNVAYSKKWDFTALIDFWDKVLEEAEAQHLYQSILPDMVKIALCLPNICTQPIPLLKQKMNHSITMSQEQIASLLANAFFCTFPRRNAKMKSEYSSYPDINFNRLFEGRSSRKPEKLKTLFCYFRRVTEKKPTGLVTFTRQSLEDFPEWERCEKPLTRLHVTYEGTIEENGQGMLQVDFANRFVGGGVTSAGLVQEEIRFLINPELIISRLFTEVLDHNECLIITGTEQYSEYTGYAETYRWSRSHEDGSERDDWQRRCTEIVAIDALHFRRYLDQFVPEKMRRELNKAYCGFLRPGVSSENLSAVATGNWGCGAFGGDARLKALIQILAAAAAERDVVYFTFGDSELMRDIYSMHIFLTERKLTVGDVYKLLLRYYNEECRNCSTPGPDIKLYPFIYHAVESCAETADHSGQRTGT

`Cn1cc(CN2C(=O)c3cc(S(=O)(=O)NC4(C)CC4)ccc3N3C2=NC[C@H]3C#Cc2cnccn2)cn1` [Example 77, (R)-4-((1-methyl-1H-pyrazol-4-yl)methyl)-N-(1-methylcyclopropyl)-5-oxo-1-(pyrazin-2-ylethynyl)-1,2,4,5-tetrahydroimidazo[1,2-a]quinazoline-7-sulfonamide] and `Cn1cc(CN2C(=O)c3cc(S(=O)(=O)NC4(C)CC4)ccc3N3C2=NC[C@H]3C#Cc2nccn2C)cn1` [Example 83, (R)-1-((1-methyl-1H-imidazol-2-yl)ethynyl)-4-((1-methyl-1H-pyrazol-4-yl)methyl)-N-(1-methylcyclopropyl)-5-oxo-1,2,4,5-tetrahydroimidazo[1,2-a]quinazoline-7-sulfonamide] cannot be ordered by IC50: under 100 nM for the first, under 100 nM for the second.

First: C[C@@H]1CN(c2cc(S(=O)(=O)NC3(C)CC3)cc3c2N2C(=NC[C@H]2C)N(Cc2cnn(C)c2)C3=O)CCN1 [Example 78, (R)-1-methyl-4-((1-methyl-1H-pyrazol-4-yl)methyl)-N-(1-methylcyclopropyl)-9-((R)-3-methylpiperazin-1-yl)-5-oxo-1,2,4,5-tetrahydroimidazo[1,2-a]quinazoline-7-sulfonamide]
Second: C[C@@H]1CN=C2N(Cc3cnn(C)c3)C(=O)c3cc(S(=O)(=O)NC4(C)CC4)cc(N4CCN[C@@H](C)C4)c3N21 [Example 82, (R)-1-methyl-4-((1-methyl-1H-pyrazol-4-yl)methyl)-N-(1-methylcyclopropyl)-9-((S)-3-methylpiperazin-1-yl)-5-oxo-1,2,4,5-tetrahydroimidazo[1,2-a]quinazoline-7-sulfonamide]
The IC50 of the first is lower: 100 to 1000 nM for the first, 1000 to 10000 nM for the second. The first is the more potent here.

`C#C[C@@H]1CN=C2N(Cc3cnn(C)c3)C(=O)c3cc(S(=O)(=O)NC4(C)CC4)cc(C4=CCNCC4)c3N21` [Example 79, (R)-1-ethynyl-4-((1-methyl-1H-pyrazol-4-yl)methyl)-N-(1-methylcyclopropyl)-5-oxo-9-(1,2,3,6-tetrahydropyridin-4-yl)-1,2,4,5-tetrahydroimidazo[1,2-a]quinazoline-7-sulfonamide] and `C[C@@H]1CN=C2N(Cc3cnn(C)c3)C(=O)c3cc(S(=O)(=O)NC4(C)CC4)cc(C4=CCNCC4)c3N21` [Example 80, (R)-1-methyl-4-((1-methyl-1H-pyrazol-4-yl)methyl)-N-(1-methylcyclopropyl)-5-oxo-9-(1,2,3,6-tetrahydropyridin-4-yl)-1,2,4,5-tetrahydroimidazo[1,2-a]quinazoline-7-sulfonamide] fall in the same range of IC50: 100 to 1000 nM for the first, 100 to 1000 nM for the second.

`CCN(CC)CC#C[C@@H]1CN=C2N(Cc3cnn(C)c3)C(=O)c3cc(S(=O)(=O)NC4(C)CC4)ccc3N21` [Example 81, (R)-1-(3-(diethylamino)prop-1-yn-1-yl)-4-((1-methyl-1H-pyrazol-4-yl)methyl)-N-(1-methylcyclopropyl)-5-oxo-1,2,4,5-tetrahydroimidazo[1,2-a]quinazoline-7-sulfonamide] and `Cn1cc(CN2C(=O)c3cc(S(=O)(=O)NC4(C)CC4)ccc3N3C2=NC[C@H]3C#CC(F)F)cn1` [Example 99, (R)-1-(3,3-difluoroprop-1-yn-1-yl)-4-((1-methyl-1H-pyrazol-4-yl)methyl)-N-(1-methylcyclopropyl)-5-oxo-1,2,4,5-tetrahydroimidazo[1,2-a]quinazoline-7-sulfonamide] cannot be ordered by IC50: under 100 nM for the first, under 100 nM for the second.

First: Cc1nnc(N2C3=NC[C@@H](C)N3c3ccc(S(=O)(=O)NC4(C)CC4)cc32)s1 [Example 84, (R)-3-methyl-9-(5-methyl-1,3,4-thiadiazol-2-yl)-N-(1-methylcyclopropyl)-2,9-dihydro-3H-benzo[d]imidazo[1,2-a]imidazole-7-sulfonamide]
Second: C[C@@H]1CCN=C2N(c3nnc(C(F)F)s3)c3cc(S(=O)(=O)NC4(C)CC4)ccc3N21 [Example 85]
The IC50 of the first is higher: 100 to 1000 nM for the first, under 100 nM for the second. The second is the more potent here.

First: CC1(NS(=O)(=O)c2ccc3c(c2)N(c2nnc(C(F)F)s2)C2=NOCCN23)CC1 [Example 86, 10-(5-(difluoromethyl)-1,3,4-thiadiazol-2-yl)-N-(1-methylcyclopropyl)-3,4-dihydro-10H-benzo[4,5]imidazo[2,1-c][1,2,4]oxadiazine-8-sulfonamide]
Second: [2H]C([2H])(c1cnn(C)c1)N1C(=O)c2cc(S(=O)(=O)NC3(C)CC3)ccc2N2C1=NC[C@@H]2C#C [Example 90, (S)-1-ethynyl-4-((1-methyl-1H-pyrazol-4-yl)methyl-d2)-N-(1-methylcyclopropyl)-5-oxo-1,2,4,5-tetrahydroimidazo[1,2-a]quinazoline-7-sulfonamide]
The IC50 of the first is lower: under 100 nM for the first, 100 to 1000 nM for the second. The first is the more potent here.

First: Cn1cc(CN2C(=O)c3cc(S(=O)(=O)NC4(C)CC4)ccc3N3C2=NC[C@H]3C#CCN2CCCC2)cn1 [Example 87, (R)-4-((1-methyl-1H-pyrazol-4-yl)methyl)-N-(1-methylcyclopropyl)-5-oxo-1-(3-(pyrrolidin-1-yl)prop-1-yn-1-yl)-1,2,4,5-tetrahydroimidazo[1,2-a]quinazoline-7-sulfonamide]
Second: Cn1cc(CN2C(=O)c3cc(S(=O)(=O)NC4(C)CC4)ccc3N3C2=NC[C@H]3C#CC2CNC2)cn1 [Example 89, (R)-1-(azetidin-3-ylethynyl)-4-((1-methyl-1H-pyrazol-4-yl)methyl)-N-(1-methylcyclopropyl)-5-oxo-1,2,4,5-tetrahydroimidazo[1,2-a]quinazoline-7-sulfonamide]
The IC50 of the first is lower: under 100 nM for the first, 1000 to 10000 nM for the second.

First: C[C@@H]1CN(c2cc(S(=O)(=O)NC3(C)CC3)cc3c2N2C(=NC[C@H]2C)N(Cc2cnn(C)c2)C3=O)C[C@@H](C)N1 [Example 88, (R)-9-((3R,5R)-3,5-dimethylpiperazin-1-yl)-1-methyl-4-((1-methyl-1H-pyrazol-4-yl)methyl)-N-(1-methylcyclopropyl)-5-oxo-1,2,4,5-tetrahydroimidazo[1,2-a]quinazoline-7-sulfonamide]
Second: C#C[C@H]1CN=C2N(Cc3cnn(C)c3)C(=O)c3cc(S(=O)(=O)NC4(C)CC4)cc(Br)c3N21 [Example 94, (S)-9-bromo-1-ethynyl-4-((1-methyl-1H-pyrazol-4-yl)methyl)-N-(1-methylcyclopropyl)-5-oxo-1,2,4,5-tetrahydroimidazo[1,2-a]quinazoline-7-sulfonamide]
The IC50 of the first is lower: under 100 nM for the first, 100 to 1000 nM for the second. The first is the more potent here.

First: Cn1cc(C#C[C@H]2CN=C3N(Cc4cnn(C)c4)C(=O)c4cc(S(=O)(=O)NC5(C)CC5)ccc4N32)cn1 [Example 91, (S′)-1-((1-methyl-1H-pyrazol-4-yl)ethynyl)-4-((1-methyl-1H-pyrazol-4-yl)methyl)-N-(1-methylcyclopropyl)-5-oxo-1,2,4,5-tetrahydroimidazo[1,2-a]quinazoline-7-sulfonamide]
Second: [2H]C([2H])(c1cnn(C)c1)N1C(=O)c2cc(S(=O)(=O)NC3(C)CC3)ccc2N2C1=NC[C@H]2C#Cc1cnn(C)c1 [Example 97, (R)-1-((1-methyl-1H-pyrazol-4-yl)ethynyl)-4-((1-methyl-1H-pyrazol-4-yl)methyl-d2)-N-(1-methylcyclopropyl)-5-oxo-1,2,4,5-tetrahydroimidazo[1,2-a]quinazoline-7-sulfonamide]
The IC50 of the first is higher: 100 to 1000 nM for the first, under 100 nM for the second.

`[2H]C([2H])(c1cnn(C)c1)N1C(=O)c2cc(S(=O)(=O)NC3(C)CC3)cc(Cl)c2N2C1=NC[C@@H]2C#CC1CC1` [Example 92, (S)-9-chloro-1-(cyclopropylethynyl)-4-((1-methyl-1H-pyrazol-4-yl)methyl-d2)-N-(1-methylcyclopropyl)-5-oxo-1,2,4,5-tetrahydroimidazo[1,2-a]quinazoline-7-sulfonamide] and `[2H]C([2H])(c1cnn(C)c1)N1C(=O)c2cc(S(=O)(=O)NC3(C)CC3)cc(Br)c2N2C1=NC[C@@H]2C#CC1CC1` [Example 95, (S)-9-bromo-1-(cyclopropylethynyl)-4-((1-methyl-1H-pyrazol-4-yl)methyl-d2)-N-(1-methylcyclopropyl)-5-oxo-1,2,4,5-tetrahydroimidazo[1,2-a]quinazoline-7-sulfonamide] fall in the same range of IC50: 100 to 1000 nM for the first, 100 to 1000 nM for the second.

Compared with `Cn1cc(CN2C(=O)c3cc(S(=O)(=O)NC4(C)CC4)ccc3N3C2=NC[C@@H]3C2CCCC2)cn1` [Example 93, (S)-1-cyclopentyl-4-((1-methyl-1H-pyrazol-4-yl)methyl)-N-(1-methylcyclopropyl)-5-oxo-1,2,4,5-tetrahydroimidazo[1,2-a]quinazoline-7-sulfonamide], `[2H]C([2H])(c1cnn(C)c1)N1C(=O)c2cc(S(=O)(=O)NC3(C)CC3)ccc2N2C1=NC[C@H]2C#CCC(C)C` [Example 96, (R)-4-((1-methyl-1H-pyrazol-4-yl)methyl-d2)-N-(1-methylcyclopropyl)-1-(4-methylpent-1-yn-1-yl)-5-oxo-1,2,4,5-tetrahydroimidazo[1,2-a]quinazoline-7-sulfonamide] is lower in IC50: 100 to 1000 nM for the first, under 100 nM for the second. The second is the more potent here.

`[2H]C([2H])(c1cnn(C)c1)N1C(=O)c2cc(S(=O)(=O)NC3(C)CC3)cc(Br)c2N2C1=NC[C@H]2C#C` [Example 98, (R)-9-bromo-1-ethynyl-4-((1-methyl-1H-pyrazol-4-yl)methyl-d2)-N-(1-methylcyclopropyl)-5-oxo-1,2,4,5-tetrahydroimidazo[1,2-a]quinazoline-7-sulfonamide] and `[2H]C([2H])(c1cnn(C)c1)N1C(=O)c2cc(S(=O)(=O)NC3(C)CC3)ccc2N2C1=NC[C@H]2C#Cc1cn(C)nc1F` [Example 101, (R)-1-((3-fluoro-1-methyl-1H-pyrazol-4-yl)ethynyl)-4-((1-methyl-1H-pyrazol-4-yl)methyl-d2)-N-(1-methylcyclopropyl)-5-oxo-1,2,4,5-tetrahydroimidazo[1,2-a]quinazoline-7-sulfonamide] cannot be ordered by IC50: under 100 nM for the first, under 100 nM for the second.

With `CN(C)CC#C[C@@H]1CN=C2N(Cc3cnn(C)c3)C(=O)c3cc(S(=O)(=O)NC4(C)CC4)cc(Cl)c3N21` [Example 100, (R)-9-chloro-1-(3-(dimethylamino)prop-1-yn-1-yl)-4-((1-methyl-1H-pyrazol-4-yl)methyl)-N-(1-methylcyclopropyl)-5-oxo-1,2,4,5-tetrahydroimidazo[1,2-a]quinazoline-7-sulfonamide] the IC50 was under 100 nM.
